Measured values published in ChEMBL document CHEMBL1201862, “PubChem BioAssay data set” (2004).
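Step 1: Grow cells in 96-well plates. Step 2: Expose to compound for 48 hours at 5 concentrations. Step 3: Interpolate endpoints linearly; if unreached, use highest concentration. GI50 marks 50% less growth.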 Calls of active or inactive are those of the source. No stated cut-off is given here; in the data, active = GI50 up to about 1.1 µM and inactive = higher. Square brackets hold non-standard residues; d marks the D form. Peptide text beside a SMILES is read from it. ξ: configuration not given here. ξ2Thi = NC(Cc1cccs1)C(=O)O; ξR = N=C(N)NCCCC(N)C(=O)O; ξI = CCC(C)C(N)C(=O)O; ξL = CC(C)CC(N)C(=O)O; ξK = NCCCCC(N)C(=O)O; ξT = CC(O)C(N)C(=O)O; ξA = CC(N)C(=O)O

What was measured:
Experiment in all cases: NCI-60 cell line screen, 48 h
A549 = tested on: A549
BT-549 = tested on: BT-549
EKVX = tested on: EKVX
HCT-116 = tested on: HCT-116
HOP-92 = tested on: HOP-92
HT-29 = tested on: HT-29
IGROV-1 = tested on: IGROV-1
KM12 = tested on: KM12
LOX IMVI = tested on: LOX IMVI
NCI-H226 = tested on: NCI-H226
NCI-H23 = tested on: NCI-H23
OVCAR-5 = tested on: OVCAR-5
SF-539 = tested on: SF-539
SK-OV-3 = tested on: SK-OV-3
SNB-75 = tested on: SNB-75
U-251 = tested on: U-251
UO-31 = tested on: UO-31
Hs-578T = tested on: Hs-578T
HCC 2998 = tested on: HCC 2998

| SMILES | GI50 (A549) | GI50 (BT-549) | GI50 (EKVX) | GI50 (HCT-116) | GI50 (HOP-92) | GI50 (HT-29) | GI50 (IGROV-1) | GI50 (KM12) | GI50 (LOX IMVI) | GI50 (NCI-H226) | GI50 (NCI-H23) | GI50 (OVCAR-5) | GI50 (SF-539) | GI50 (SK-OV-3) | GI50 (SNB-75) | GI50 (U-251) | GI50 (UO-31) | GI50 (Hs-578T) | GI50 (HCC 2998) |
| --- | --- | --- | --- | --- | --- | --- | --- | --- | --- | --- | --- | --- | --- | --- | --- | --- | --- | --- | --- |
| O=C(O)c1cccc(SSc2cccc(C(=O)O)c2)c1 | > 100 µM (inactive) | > 100 µM (inactive) | > 100 µM (inactive) | > 100 µM (inactive) | > 100 µM (inactive) | > 100 µM (inactive) | > 100 µM (inactive) | > 100 µM (inactive) | > 100 µM (inactive) | > 100 µM (inactive) | > 100 µM (inactive) | > 100 µM (inactive) | > 100 µM (inactive) | > 100 µM (inactive) | > 100 µM (inactive) | > 100 µM (inactive) | > 100 µM (inactive) |  |  |
| O=C(CC1C=Cc2ccccc2N1C(=O)c1ccccc1)c1ccccc1 (stereo unspecified) | 22.5 µM (inactive) | 23.8 µM (inactive) | 12.6 µM (inactive) | 16 µM (inactive) | 24 µM (inactive) | 17.1 µM (inactive) | 19.1 µM (inactive) | 19.3 µM (inactive) | 23.6 µM (inactive) | 34.4 µM (inactive) | 23 µM (inactive) | 25.5 µM (inactive) | 22.6 µM (inactive) | 30.9 µM (inactive) | 45.2 µM (inactive) | 23.1 µM (inactive) | 20.4 µM (inactive) | 25.1 µM (inactive) |  |
| COC1=CC(=O)N(C(=O)C2CSC(C(CO)NC(=O)c3csc(/C=N/O)n3)=N2)C1 (stereo unspecified) |  | > 100 µM (inactive) | > 100 µM (inactive) | > 100 µM (inactive) |  | > 100 µM (inactive) | > 100 µM (inactive) | > 100 µM (inactive) | > 100 µM (inactive) | 36.6 µM (inactive) | > 100 µM (inactive) | > 100 µM (inactive) | > 100 µM (inactive) | > 100 µM (inactive) | 0.302 µM (active) |  |  | 15.9 µM (inactive) |  |
| CNC(=O)N1CN(c2ccccc2)C2(CCN(CCCC3(c4ccc(F)cc4)OCCO3)CC2)C1=O | > 100 µM (inactive) |  | > 100 µM (inactive) | > 100 µM (inactive) | > 100 µM (inactive) | > 100 µM (inactive) | > 100 µM (inactive) | > 100 µM (inactive) | > 100 µM (inactive) | > 100 µM (inactive) | > 100 µM (inactive) | > 100 µM (inactive) | > 100 µM (inactive) | > 100 µM (inactive) | > 100 µM (inactive) | > 100 µM (inactive) | > 100 µM (inactive) | > 100 µM (inactive) | > 100 µM (inactive) |
| CCOC(=O)c1nnsc1NC(=O)NN | > 100 µM (inactive) | > 100 µM (inactive) | > 100 µM (inactive) | > 100 µM (inactive) |  | > 100 µM (inactive) | > 100 µM (inactive) | > 100 µM (inactive) | 82.2 µM (inactive) | > 100 µM (inactive) | > 100 µM (inactive) | > 100 µM (inactive) | > 100 µM (inactive) | > 100 µM (inactive) | > 100 µM (inactive) | > 100 µM (inactive) | > 100 µM (inactive) | > 100 µM (inactive) | > 100 µM (inactive) |
| CCOC(=O)c1nc2ccc(C(F)(F)F)cc2nc1NCc1ccc(OC)c(OC)c1 | 50.2 µM (inactive) | 51.3 µM (inactive) | 44.8 µM (inactive) | 39.2 µM (inactive) | 29.7 µM (inactive) | 32.1 µM (inactive) | 71.1 µM (inactive) | 55.5 µM (inactive) | 36.1 µM (inactive) | 63.5 µM (inactive) | 72.8 µM (inactive) | > 100 µM (inactive) | > 100 µM (inactive) | > 100 µM (inactive) | 21.9 µM (inactive) | 41.8 µM (inactive) | 60.7 µM (inactive) | 42.8 µM (inactive) |  |
| Cc1cc(C)c2c(n1)S(=O)(=O)N(CCCN1CCN(c3cccc(Cl)c3)CC1)C(C(=O)c1ccc(Br)cc1)=C2O | 22.1 µM (inactive) | 42.3 µM (inactive) | 19.3 µM (inactive) | 19.1 µM (inactive) | 20.7 µM (inactive) | 25.4 µM (inactive) | 27.2 µM (inactive) | 24.7 µM (inactive) | 6.81 µM (inactive) |  | 33.5 µM (inactive) | 36.2 µM (inactive) | 20.7 µM (inactive) | 29.5 µM (inactive) | 10.3 µM (inactive) | 21.3 µM (inactive) | 7.1 µM (inactive) | 29.6 µM (inactive) |  |
| Nc1cc(N2CCCC2)nc(=O)n1Cc1ccccc1 | > 100 µM (inactive) | > 100 µM (inactive) | > 100 µM (inactive) | > 100 µM (inactive) | > 100 µM (inactive) | > 100 µM (inactive) | > 100 µM (inactive) | > 100 µM (inactive) | > 100 µM (inactive) | > 100 µM (inactive) | > 100 µM (inactive) | > 100 µM (inactive) | > 100 µM (inactive) |  | > 100 µM (inactive) | > 100 µM (inactive) |  |  |  |
| Cc1oc2ccccc2c(=O)c1Cn1nnc2ccccc21 | 70.8 µM (inactive) |  | > 100 µM (inactive) | 59.7 µM (inactive) | 18.6 µM (inactive) | 91.8 µM (inactive) |  | > 100 µM (inactive) | 73.3 µM (inactive) | 53.1 µM (inactive) | > 100 µM (inactive) | > 100 µM (inactive) | > 100 µM (inactive) | > 100 µM (inactive) | 45.6 µM (inactive) | > 100 µM (inactive) | 47.3 µM (inactive) | 83.2 µM (inactive) | > 100 µM (inactive) |
| ClC(Cl)(Cl)C1CCOC1n1nc2ccccc2n1 (stereo unspecified) | > 100 µM (inactive) | > 100 µM (inactive) | > 100 µM (inactive) | > 100 µM (inactive) |  | > 100 µM (inactive) | > 100 µM (inactive) |  |  | > 100 µM (inactive) | > 100 µM (inactive) | > 100 µM (inactive) | > 100 µM (inactive) | > 100 µM (inactive) | 28.2 µM (inactive) | > 100 µM (inactive) |  | > 100 µM (inactive) | > 100 µM (inactive) |
| CCOc1cc(-c2nc3cc(F)ccc3s2)ccc1O | 17.9 µM (inactive) | 16.1 µM (inactive) | 10.8 µM (inactive) | 20.6 µM (inactive) |  | 18.1 µM (inactive) | 12.5 µM (inactive) | 17 µM (inactive) | 16 µM (inactive) | 17 µM (inactive) | 18 µM (inactive) | 18.7 µM (inactive) | 18.8 µM (inactive) | 18.7 µM (inactive) |  | 19.5 µM (inactive) | 12.9 µM (inactive) |  | 26 µM (inactive) |
| [O-][S+](Nc1ccccc1)c1ccc(Cl)c(Cl)c1 (stereo unspecified) | 28.6 µM (inactive) | 17 µM (inactive) | 47.3 µM (inactive) | 33.1 µM (inactive) |  | > 100 µM (inactive) | 21.5 µM (inactive) | 14.7 µM (inactive) | 38.8 µM (inactive) | 51.1 µM (inactive) | 54.5 µM (inactive) |  | 20.6 µM (inactive) |  |  | 15.9 µM (inactive) | 52 µM (inactive) | 24.5 µM (inactive) | 27.3 µM (inactive) |
| CCOC(=O)c1nc2ccc(C(F)(F)F)cc2nc1Oc1ccc(OC)cc1 | > 100 µM (inactive) | > 100 µM (inactive) | 55.2 µM (inactive) | > 100 µM (inactive) | 82.2 µM (inactive) | > 100 µM (inactive) | > 100 µM (inactive) | > 100 µM (inactive) | > 100 µM (inactive) | > 100 µM (inactive) |  | > 100 µM (inactive) | > 100 µM (inactive) | > 100 µM (inactive) | > 100 µM (inactive) | > 100 µM (inactive) | > 100 µM (inactive) | > 100 µM (inactive) |  |
| CC(C)(N)C(=O)N[C@@H]1C(=O)N2[C@@H]1SC(C)(C)[C@@H]2C(=O)O | > 100 µM (inactive) | > 100 µM (inactive) | > 100 µM (inactive) | > 100 µM (inactive) | > 100 µM (inactive) | > 100 µM (inactive) | > 100 µM (inactive) | > 100 µM (inactive) | > 100 µM (inactive) | > 100 µM (inactive) | > 100 µM (inactive) | > 100 µM (inactive) | > 100 µM (inactive) | > 100 µM (inactive) | > 100 µM (inactive) | > 100 µM (inactive) | > 100 µM (inactive) | > 100 µM (inactive) |  |
| COc1ccc(N2C(=O)C(=O)C3(CCCCC3)C2=O)c(OC)c1OC | > 100 µM (inactive) | 34 µM (inactive) | > 100 µM (inactive) | > 100 µM (inactive) |  | > 100 µM (inactive) |  | > 100 µM (inactive) | > 100 µM (inactive) | > 100 µM (inactive) | > 100 µM (inactive) | > 100 µM (inactive) | > 100 µM (inactive) | > 100 µM (inactive) | > 100 µM (inactive) | > 100 µM (inactive) | > 100 µM (inactive) | > 100 µM (inactive) |  |
| CCC(C)C(NC(=O)C(Cc1cccs1)NC(=O)C(CC(C)C)NC(=O)C(CC(C)C)NC(=O)C(CCCCN)NC(=O)C(CCCN=C(N)N)NC(=O)[C@H](Cc1ccc(O)cc1)NC(=O)C(NC(=O)C(C)NC(=O)C(N)CC(C)C)C(C)O)C(=O)NC(CC(C)C)C(N)=O (stereo partly specified) (H-[ξL][ξA][ξT]Y[ξR][ξK][ξL][ξL][ξ2Thi][ξI][ξL]-NH2) | > 50 µM (inactive) | > 50 µM (inactive) | > 50 µM (inactive) | > 50 µM (inactive) |  | > 50 µM (inactive) |  | > 50 µM (inactive) | > 50 µM (inactive) | > 50 µM (inactive) | > 50 µM (inactive) | > 50 µM (inactive) | > 50 µM (inactive) | > 50 µM (inactive) | > 50 µM (inactive) | > 50 µM (inactive) | > 50 µM (inactive) | > 50 µM (inactive) | > 50 µM (inactive) |
